Assay results taken from ChEMBL document CHEMBL5154678, “Lysine Stapling Screening Provides Stable and Low Toxic Cationic Antimicrobial Peptides Combating Multidrug-Resistant Bacteria In Vitro and In Vivo” (J Med Chem, 2022).
≈ marks a conversion by molar mass, not a printed value. Calls of active or inactive are those of the source. No cut-off for these calls is given here. Starred links: 1 amine or outer side, 2 acyl side, 3 side chain; linkers in the order of their positions; H or OH if unused. Positions of bridges follow the written chain, without caps; N, C: chain ends. Non-standard residues stand in square brackets, D forms with d. Residues, ends and D or L forms follow the SMILES beside them. X1 = O=C([C@H](CCCCNCC=[*:3])N[*:1])[*:2]

Columns and labels:
[1] = test system: Escherichia coli; assay: Antibacterial activity against Escherichia coli BNCC 133264 assessed as inhibition of bacterial growth incubated for 16 hrs by broth microdilution method; format: functional
[2] = test system: Pseudomonas aeruginosa; assay: Antibacterial activity against Pseudomonas aeruginosa BNCC 125486 assessed as inhibition of bacterial growth incubated for 16 hrs by broth microdilution method; format: functional
[3] = test system: Listeria monocytogenes; assay: Antibacterial activity against Listeria monocytogenes assessed as inhibition of bacterial growth incubated for 16 hrs by broth microdilution method; format: functional
[4] = test system: Erythrocyte; assay: Hemolytic activity against human RBC assessed as concentration required to cause 10% hemolysis; format: toxicity, cell-based
[5] = test system: HEK-293T; assay: Cytotoxicity against human HEK293T cells assessed as cell survival rate at 8 to 128 Ug/ml incubated for 24 hrs by MTT assay relative to control; format: toxicity, cell-based; settings: dose 8-128 µg/ml
[6] = test system: Staphylococcus aureus; assay: Antibacterial activity against methicillin-resistant Staphylococcus aureus assessed as inhibition of bacterial growth incubated for 16 hrs by broth microdilution method; format: functional
[7] = test system: Staphylococcus aureus; assay: Antibacterial activity against Staphylococcus aureus BNCC 186335 assessed as inhibition of bacterial growth incubated for 16 hrs by broth microdilution method; format: functional
[8] = test system: Escherichia coli; assay: Antibacterial activity against cephalosporin-resistant Escherichia coli BNCC 133264 assessed as inhibition of bacterial growth incubated for 16 hrs by broth microdilution method; format: functional
[9] = test system: Staphylococcus aureus; assay: Antibacterial activity against multidrug-resistant Staphylococcus aureus BNCC 186335 assessed as inhibition of bacterial growth incubated for 16 hrs by broth microdilution method; format: functional
[10] = test system: Cell membrane; assay: Induction of membrane damage in multidrug-resistant Acinetobacter baumannii assessed as concentration of stained cells incubated for 2 hrs by propidium iodide staining based flow cytometer assay; format: subcellular; settings: dose 16.0 µg/ml, DDE = dose-dependent effect
[11] = test system: Staphylococcus aureus; assay: Antibacterial activity against methicillin-resistant Staphylococcus aureus BNCC 186335 infected in mouse C57BL/6 assessed as reduction in intracellular bacterial burden in kidney at 2 mg/kg ,ip incubated for 24 hrs; format: functional, organism-based
[12] = test system: HEK-293T; assay: Cytotoxicity against human HEK293T cells assessed as cell survival rate at 256 ug/ml incubated for 24 hrs by MTT assay; format: toxicity, cell-based; settings: dose 256 µg/ml
[13] = test system: Escherichia coli; assay: Antibacterial activity against multidrug-resistant Escherichia coli BNCC 133264 assessed as inhibition of bacterial growth incubated for 16 hrs by broth microdilution method; format: functional
[14] = test system: Enterococcus faecium; assay: Antibacterial activity against multidrug-resistant Enterococcus faecium assessed as inhibition of bacterial growth incubated for 16 hrs by broth microdilution method; format: functional
[15] = test system: Cell membrane; assay: Induction of membrane damage in methicillin-resistant Staphylococcus aureus BNCC 186335 assessed as concentration of stained cells incubated for 2 hrs by propidium iodide staining based flow cytometer assay; format: subcellular
[16] = test system: Pseudomonas aeruginosa; assay: Antibacterial activity against multidrug-resistant Pseudomonas aeruginosa BNCC 125486 assessed as inhibition of bacterial growth incubated for 16 hrs by broth microdilution method; format: functional
[17] = Stability in human plasma assessed as half life measured after 24 hrs by HPLC analysis; format: ADME, cell-free
[18] = test system: Staphylococcus aureus; assay: Antibacterial activity against methicillin-resistant Staphylococcus aureus BNCC 186335 infected in mouse C57BL/6 assessed as reduction in intracellular bacterial burden in spleen at 2 mg/kg ,ip incubated for 24 hrs; format: functional, organism-based
[19] = test system: Acinetobacter baumannii; assay: Antibacterial activity against multidrug-resistant Acinetobacter baumannii assessed as inhibition of bacterial growth incubated for 16 hrs by broth microdilution method; format: functional
[20] = test system: Staphylococcus aureus; assay: Antibacterial activity against methicillin-resistant Staphylococcus aureus BNCC 186335 infected in mouse C57BL/6 assessed as reduction in intracellular bacterial burden in lung at 2 mg/kg ,ip incubated for 24 hrs; format: functional, organism-based
[21] = test system: Klebsiella pneumoniae; assay: Antibacterial activity against multidrug-resistant Klebsiella pneumoniae assessed as inhibition of bacterial growth incubated for 16 hrs by broth microdilution method; format: functional
[22] = test system: Staphylococcus aureus; assay: Antibacterial activity against methicillin-resistant Staphylococcus aureus BNCC 186335 infected in mouse C57BL/6 assessed as reduction in intracellular bacterial burden in liver at 2 mg/kg ,ip incubated for 24 hrs; format: functional, organism-based
[23] = test system: Staphylococcus aureus; assay: Antibacterial activity against methicillin-resistant Staphylococcus aureus BNCC 186335 assessed as inhibition of bacterial growth incubated for 4 hrs in presence of 25% plasma by broth microdilution method; format: functional
[24] = test system: HEK-293T; assay: Cytotoxicity against human HEK293T cells assessed as cell survival rate at 64 Ug/ml incubated for 24 hrs by MTT assay relative to control; format: toxicity, cell-based; settings: dose 64 µg/ml

SMILES	MIC [1] [µg/mL]	MIC [2] [µg/mL]	MIC [3] [µg/mL]	MHC [4] [µg/mL]	Activity [5]	MIC [6] [µg/mL]	MIC [7] [µg/mL]	MIC [8] [µg/mL]	Activity [12]	further results
CC[C@H](C)[C@H](NC(=O)[C@@H]1CCCCNC/C=C/CNCCCC[C@H](NC(=O)[C@@H]2CCCN2)C(=O)N[C@@H]([C@@H](C)CC)C(=O)N[C@@H](CC(C)C)C(=O)N[C@@H](CC(N)=O)C(=O)N1)C(=O)N[C@@H](CC(C)C)C(=O)NCC(=O)N[C@@H](CCCCN)C(=O)N[C@H](C(=O)N[C@@H](CC(C)C)C(=O)N[C@@H](CCCNC(=N)N)C(=O)N[C@@H](CC(C)C)C(=O)N[C@@H](C)C(=O)N[C@@H](C)C(=O)N[C@@H](C)C(=O)N[C@@H](Cc1ccccc1)C(=O)N[C@@H](CCCCN)C(N)=O)[C@@H](C)CC (H-P[X1]ILN[X1]ILGKILRLAAAFK-NH2; staple (E) 2-6)	16 (≈ 7.41 µM)	128 (≈ 59.3 µM)	4 (≈ 1.85 µM)	16	Toxic	4 (≈ 1.85 µM)	4 (≈ 1.85 µM)	16 (≈ 7.41 µM)	–	–
CC(C)[C@H](N)C(=O)N[C@@H](CCCCN)C(=O)N[C@@H](CCCNC(=N)N)C(=O)N[C@@H](Cc1ccccc1)C(=O)N[C@@H](CCCCN)C(=O)N[C@@H](CCCCN)C(=O)N[C@@H](Cc1ccccc1)C(=O)N[C@@H](Cc1ccccc1)C(=O)N[C@@H](CCCNC(=N)N)C(=O)N[C@@H](CCCCN)C(=O)N[C@@H](Cc1ccccc1)C(=O)N[C@@H](CCCCN)C(=O)N[C@@H](CCCCN)C(=O)N[C@@H](Cc1ccccc1)C(=O)N[C@H](C(N)=O)C(C)C (H-VKRFKKFFRKFKKFV-NH2)	2 (≈ 0.984 µM)	8 (≈ 3.94 µM)	16 (≈ 7.87 µM)	> 128	–	8 (≈ 3.94 µM)	4 (≈ 1.97 µM)	16 (≈ 7.87 µM)	Toxic	MIC [9]: 32 µg/mL (≈ 15.7 µM); Activity [10]: Dde; Activity [11]: Active; MIC [13]: 8 µg/mL (≈ 3.94 µM); MIC [14]: 8 µg/mL (≈ 3.94 µM); Activity [15]: 11%; MIC [16]: 4 µg/mL (≈ 1.97 µM); half-life [17]: 2.5 h; Activity [18]: Active; MIC [19]: 4 µg/mL (≈ 1.97 µM); Activity [20]: Active; MIC [21]: 128 µg/mL (≈ 63 µM); Activity [22]: Active
CC(C)[C@H](N)C(=O)N[C@H]1CCCCNC/C=C/CNCCCC[C@@H](C(=O)N[C@@H](Cc2ccccc2)C(=O)N[C@@H](Cc2ccccc2)C(=O)N[C@@H](CCCNC(=N)N)C(=O)N[C@@H](CCCCN)C(=O)N[C@@H](Cc2ccccc2)C(=O)N[C@@H](CCCCN)C(=O)N[C@@H](CCCCN)C(=O)N[C@@H](Cc2ccccc2)C(=O)N[C@H](C(N)=O)C(C)C)NC(=O)[C@H](CCCCN)NC(=O)[C@H](Cc2ccccc2)NC(=O)[C@H](CCCNC(=N)N)NC1=O (H-V[X1]RFK[X1]FFRKFKKFV-NH2; staple (E) 2-6)	4 (≈ 1.92 µM)	8 (≈ 3.84 µM)	16 (≈ 7.68 µM)	> 128	–	4 (≈ 1.92 µM)	2 (≈ 0.959 µM)	16 (≈ 7.68 µM)	Toxic	MIC [23]: 128 µg/mL; Activity [24]: Toxic
CC(C)C[C@H](NC(=O)[C@H](C)NC(=O)[C@H](CCCCN)NC(=O)[C@H](C)NC(=O)[C@H](C)NC(=O)CNC(=O)[C@H](CCCCN)NC(=O)[C@H](CC(C)C)NC(=O)[C@H](CC(C)C)NC(=O)[C@H](CC(=O)O)NC(=O)[C@H](CCCCN)NC(=O)[C@H](Cc1ccccc1)NC(=O)CN)C(=O)N[C@H](C(=O)N[C@@H](CCCCN)C(=O)N[C@H](C(=O)N[C@H](C(=O)N[C@@H](CC(C)C)C(=O)N[C@@H](Cc1ccccc1)C(N)=O)C(C)C)[C@@H](C)O)C(C)C [Ascaphin-8] (H-GFKDLLKGAAKALVKTVLF-NH2)	4 (≈ 1.98 µM)	16 (≈ 7.93 µM)	2 (≈ 0.991 µM)	32	Toxic	16 (≈ 7.93 µM)	2 (≈ 0.991 µM)	32 (≈ 15.9 µM)	–	–
